Experiments:
ELL2 = assay: Western blotting of ELL2 protein levels in 293T cells; assay type: cell-based, human; conditions: 20 μM, 6 hr
Description: FIG. 10, related to FIG. 3. Disruption of SEC phenocopies slow Pol II mutants and reduces Pol II processivity. (A) Identification of the 1,057 genes with typical Pol II termination signals around the TES. Pol II signals from WT Pol II mutant expressing cells were K-means clustered into 5 groups with a window of 15 kb around the TES. The expressing genes from clusters with a typical Pol II termination signals were selected and plotted. (B) SEC inhibitor treatments of the WT Pol II mutant expressing cells lead to a Pol II phenotype similar to slower Pol II mutant expressing cells as viewed at the 3′-end of genes. (C-D) Time-dependent and dose-dependent shift of Pol II signals around the TES sites by KL-2 treatment (N=1,057). (E) Genome browser tracks of Serine 2 phosphorylated (Ser2P) Pol II at the SRSF1 gene in HEK293T cells treated with vehicle or SEC inhibitors. SEC inhibitor treatments result in increased Pol II occupancy at the promoter-proximal region and increased occupancy of Ser2P Pol II in the gene body. […] (H) SEC inhibition results in decreased protein levels of the SEC subunit ELL2. 293T cells were treated with 20 μM of the indicated inhibitors for 6 hr before harvesting cells for western blotting. (I-K) Depletion of ELL2 in HEK293T cells (I) results in apparent early termination of Pol II with reduced Pol II occupancy downstream of the PIM3 (J) and ACTB (K) annotated TES. […]

MDA231-LM2 tumor = MDA231-LM2 tumor model in athymic nude mice; assay type: in vivo; conditions: 50 mg/kg once daily, 15 intraperitoneal injections
Method: FIG. 7. SEC disruptors delay tumor progression and improve survival of MDA231-LM2 tumor mice. (A) Schematic of the development of MDA231-LM2 tumors in athymic nude mice (Wang et al., 2017). 4×10^6 MDA231-LM2 cells were inoculated into the fat pads of nude mice. 17 days after injection, when the tumor reached 100 mm^3, mice were divided randomly into three groups. Drug treatments were performed with once daily with 50 mg/kg KL-1, 10 mg/kg KL-2 or PBS (vehicle) for a total of 15 intraperitoneal injections. (B-C) KL-1 and KL-2 delay the tumor growth in the MDA231-LM2 tumor mouse model. The average tumor sizes of the vehicle (n=6), KL-1 (n=7), and KL-2 (n=5) treated groups were plotted from day 5 to day 36 after inoculation (B). Representative tumors sizes are shown (C). […] A 2-way unpaired student's t-test was used for statistical analysis. (E) Kaplan-Meier survival curves of vehicle, KL-1, and KL-2 treated nude mice transplanted with 4×10^6MDA231-LM2 cells. 17 days after inoculation, vehicle (n=6), KL-1 (n=7), and KL-2 (n=5) were administered daily for 15 intraperitoneal injections. Mice were euthanized when the tumor size reached 1000 mm^3. Thep values were calculated using the log-rank test.
MDA231-LM2 Tumor Model. […] The tumor sizes were measured twice a week and the mice were euthanized when the tumor size reached 1000 mm^3.

In the case of `COc1cccc(C(=O)CC(=O)C(=O)Nc2cc(Cl)ccc2C)c1` [KL-1, N-(5-chloro-2-methylphenyl)-4-oxo-4-(3-methoxyphenyl)-2-oxobutanamide], the ELL2 protein levels (ELL2) is reported as “led to reduced ELL2 protein levels”, the “survival of the recipient mice” value (MDA231-LM2 tumor) is reported as “significantly extended survival” and the “tumor progression (tumor sizes)” value (MDA231-LM2 tumor) is reported as “delayed tumor progression”.

Reference: patent US11453640B2, “Small molecules for disrupting the super elongation complex and inhibiting transcription elongation for cancer therapy” (NORTHWESTERN UNIVERSITY, priority 2018, dated 2022)
